Data published in PMC11005723, “Development of Complementary Photo‐arginine/lysine to Promote Discovery of Arg/Lys hPTMs Interactomes” (Advanced Science, 2024).

How the values were obtained:
[1] = molecular target: T1, tandem PHD domain of DPF2 (DPF2PHD) (Homo sapiens, UniProt Q92785); experiment: ITC binding of native H3 peptides to DPF2PHD; details: 25 °C, native H3_1‐15 peptides without diazirine and biotin, n = 2, representative data
T1 construct: His‐DPF2PHD (residues 270–391) domain in pET28‐MHL vector; His (N); made in house; host or cells: Escherichia coli BL21 (DE3)

RBBP4 = molecular target: T2, RBBP4 (Homo sapiens, UniProt Q09028); experiment: ITC binding of native H3 peptides to RBBP4; details: H3R2me2a versus H3R2, from ITC Kd
T2 construct: DNA fragment encoding RBBP4/7 (1‐ 425) was cloned into pFBOH‐LIC donor plasmid; His (inferred from Ni-NTA purification; vector pFBOH-LIC); made in house; host or cells: sf9 insect cells (baculovirus)
Experimental: (§1) DNA fragment encoding RBBP4/7 (1‐ 425) was cloned into pFBOH‐LIC donor plasmid. The resulting plasmid was transformed into DH10Bac Competent E. coli cells (Invitrogen) and a recombinant Bacmid DNA was purified and followed by a recombinant baculovirus generation in sf9 insect cells. sf9 cells grown in HyQ SFX insect serum‐free medium (Thermo Scientific) were infected with 10 mL of P3 viral stocks per 1 L of suspension cell culture and incubated at 27 °C using a platform shaker set at 150 rpm. The cells were harvested by centrifugation (4000 rpm for 10 min at 4 °C) after 72 h of post‐infection time when viability dropped to 70–80%. […] Fractions were assessed by SDS‐PAGE electrophoresis and those containing pure protein were pooled, concentrated, and flash‐frozen for storage at −80 °C. […]

RBBP7 = molecular target: T3, RBBP7 (Homo sapiens, UniProt Q16576); experiment: ITC binding of native H3 peptides to RBBP7; details: H3R2me2a versus H3R2, from ITC Kd
T3 construct: DNA fragment encoding RBBP4/7 (1‐ 425) was cloned into pFBOH‐LIC donor plasmid; His (inferred from Ni-NTA purification; vector pFBOH-LIC); made in house; host or cells: sf9 insect cells (baculovirus)
Experimental: as §1

[2] = molecular target: T4, PWWP domain of MSH6 (MSH6PWWP) (Homo sapiens, UniProt P52701); experiment: ITC binding of H3R2me2a to MSH6PWWP; details: 25 °C
T4 construct: His‐MSH6PWWP (residues 87–198) domain in pET28‐MHL vector; His (N); made in house; host or cells: Escherichia coli BL21 (DE3)
Experimental: His‐MSH6PWWP (residues 87–198) domain in pET28‐MHL vector. His‐ MSH6PWWP were expressed in Escherichia coli strain BL21 (DE3) (Novagen) with 0.5 mM IPTG induction at 16 °C in LB medium. After cell lysis by French Press Cell Disrupter (Thermo) and centrifugation, the supernatant was applied to a HisTrap (GE Healthcare) nickel column, and the bound protein was eluted with a linear imidazole gradient from 20 to 500 mM. And further purified by a HiLoad 16/60 Superdex 75 (GE Healthcare) gel filtration column. The pure protein were pooled and dialyzed in buffer (100 mM NaCl, 20 mM Tris, pH 7.5) with Slide‐A‐Lyzer (10000 MWCO). At last, the dialyzed protein were concentrated with to 5 mg mL^−1 and stored in −80 °C freezer for future use. Experiments were performed at 25 °C on a MicroCal PEAQ‐ITC automated (Malvern Instruments). Protein was loaded in the cell was titrated with 19 injections of peptides. The binding isotherm was fit with MicroCal PEAQ‐ITC Analysis software. The assay was done two times to confirm results.

[3] = molecular target: T5, PHD domain of UHRF1 (UHRF1PHD) (Homo sapiens, UniProt Q96T88); experiment: ITC binding of H3 peptides to UHRF1PHD; details: 25 °C, 19 injections of peptide into protein, dz peptides carry pre‐installed biotin, done two times
T5 construct: the PHD domain of UHRF1 (UHRF1PHD)
T5 sequence (Q96T88 310-366 limits assumed): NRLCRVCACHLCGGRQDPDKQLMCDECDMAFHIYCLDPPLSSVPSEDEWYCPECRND
Experimental: Experiments were performed at 25 °C on a MicroCal PEAQ‐ITC automated (Malvern Instruments). Protein was loaded in the cell was titrated with 19 injections of peptides. The binding isotherm was fit with MicroCal PEAQ‐ITC Analysis software. The assay was done two times to confirm results.

T1 sequence (Q92785 270-391): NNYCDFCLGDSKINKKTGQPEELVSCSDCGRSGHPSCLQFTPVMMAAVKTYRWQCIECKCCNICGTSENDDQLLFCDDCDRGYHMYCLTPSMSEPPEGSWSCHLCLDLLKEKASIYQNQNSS
T2 sequence (Q09028 whole entry, the tested form may be a part): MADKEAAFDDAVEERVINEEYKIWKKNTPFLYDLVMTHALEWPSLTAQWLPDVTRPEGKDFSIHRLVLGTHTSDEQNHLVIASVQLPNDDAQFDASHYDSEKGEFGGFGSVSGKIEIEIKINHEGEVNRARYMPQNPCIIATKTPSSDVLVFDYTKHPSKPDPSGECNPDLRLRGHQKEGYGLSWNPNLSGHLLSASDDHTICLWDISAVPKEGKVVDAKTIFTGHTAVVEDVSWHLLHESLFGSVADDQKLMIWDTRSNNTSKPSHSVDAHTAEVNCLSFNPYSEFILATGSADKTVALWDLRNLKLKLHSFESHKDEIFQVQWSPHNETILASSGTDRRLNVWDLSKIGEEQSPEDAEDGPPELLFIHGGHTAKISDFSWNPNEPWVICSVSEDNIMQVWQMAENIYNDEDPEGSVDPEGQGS
T3 sequence (Q16576 whole entry, the tested form may be a part): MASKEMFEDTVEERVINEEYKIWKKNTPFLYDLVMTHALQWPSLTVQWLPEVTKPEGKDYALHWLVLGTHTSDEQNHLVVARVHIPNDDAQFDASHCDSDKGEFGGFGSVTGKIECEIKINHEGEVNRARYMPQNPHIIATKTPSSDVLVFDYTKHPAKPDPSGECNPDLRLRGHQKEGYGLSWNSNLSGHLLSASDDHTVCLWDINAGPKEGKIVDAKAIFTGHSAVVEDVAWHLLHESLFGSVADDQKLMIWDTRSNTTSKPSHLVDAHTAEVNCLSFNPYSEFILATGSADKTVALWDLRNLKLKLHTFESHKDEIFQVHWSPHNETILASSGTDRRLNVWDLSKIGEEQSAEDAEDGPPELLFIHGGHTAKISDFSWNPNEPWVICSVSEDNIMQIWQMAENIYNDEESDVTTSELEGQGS
T4 sequence (P52701 87-198): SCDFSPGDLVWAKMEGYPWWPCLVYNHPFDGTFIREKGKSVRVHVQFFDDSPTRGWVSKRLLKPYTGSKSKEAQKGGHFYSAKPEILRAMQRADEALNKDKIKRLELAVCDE

| Kd (DPF2PHD) [1] | decrease in binding affinity by asymmetric methylation (RBBP4) (RBBP4) | decrease in binding affinity by asymmetric methylation (RBBP7) (RBBP7) | interaction with MSH6PWWP via ITC [2] | Kd [3] | SMILES |
| --- | --- | --- | --- | --- | --- |
| no binding affinity detected | three–fourfold decrease | three–fourfold decrease | undetectable | – | C[C@H](N)C(=O)N[C@@H](CCCNC(=N)N(C)C)C(=O)N[C@H](C(=O)N[C@@H](CCC1(CN)N=N1)C(=O)N[C@@H](CCC(N)=O)C(=O)N[C@H](C(=O)N[C@@H](C)C(=O)N[C@@H](CCCNC(=N)N)C(=O)N[C@@H](CCCCN)C(=O)N[C@@H](CO)C(=O)N[C@H](C(=O)NCC(=O)NCC(=O)N[C@@H](CCCCNC(=O)CCCC[C@@H]1SC[C@@H]2NC(=O)N[C@@H]21)C(=O)N[C@@H](C)C(N)=O)[C@@H](C)O)[C@@H](C)O)[C@@H](C)O [H3R2me2a] |
| – | – | – | – | 10.6 µM | C[C@H](N)C(=O)N[C@@H](CC1(CNC(=N)N)N=N1)C(=O)N[C@H](C(=O)N[C@@H](CCCCN)C(=O)N[C@@H](CCC(N)=O)C(=O)N[C@H](C(=O)N[C@@H](C)C(=O)N[C@@H](CCCNC(=N)N)C(=O)N[C@@H](CCCCN)C(=O)N[C@@H](CO)C(=O)N[C@H](C(=O)NCC(=O)NCC(=O)N[C@@H](CCCCNC(=O)CCCC[C@@H]1SC[C@@H]2NC(=O)N[C@@H]21)C(=O)N[C@@H](C)C(N)=O)[C@@H](C)O)[C@@H](C)O)[C@@H](C)O [H3R2‐dz] |
| – | – | – | – | 6.4 µM | C[C@H](N)C(=O)N[C@@H](CCCNC(=N)N)C(=O)N[C@H](C(=O)N[C@@H](CCC1(CN)N=N1)C(=O)N[C@@H](CCC(N)=O)C(=O)N[C@H](C(=O)N[C@@H](C)C(=O)N[C@@H](CCCNC(=N)N)C(=O)N[C@@H](CCCCN)C(=O)N[C@@H](CO)C(=O)N[C@H](C(=O)NCC(=O)NCC(=O)N[C@@H](CCCCNC(=O)CCCC[C@@H]1SC[C@@H]2NC(=O)N[C@@H]21)C(=O)N[C@@H](C)C(N)=O)[C@@H](C)O)[C@@H](C)O)[C@@H](C)O [H3K4‐dz] |
